Patent publication US7767671B2, “3-Quinolinecarbonitrile protein kinase inhibitors” (Wyeth, priority 2004, dated 2010)
pIC50: −log10 of the molar value.

Target: T1, recombinant human MEK 1 (MAPKK) / human ERK2 (MAPK) (Homo sapiens, UniProt P28482+Q02750)
T1 construct: GST; made in house
Test: Mitogen Activated Protein Kinase (MAPK) test procedure (Mek-Erk coupled)
Assay type: biochemical
Conditions: MEK1-activated ERK2, 33P ATP, peptide substrate
Method: Mitogen Activated Protein Kinase (MAPK) Test Procedure
To evaluate inhibitors of the MAP (mitogen activated protein) kinase a two component coupled standard pharmacological test procedure, which measures phosphorylation of a serine/threonine residue in an appropriate sequence in the substrate in the presence and absence of a putative inhibitor, is used. Recombinant human MEK 1 (MAPKK) is first used to activate recombinant human ERK2 (MAPK) and the activated MAPK (ERK) is incubated with substrate (myelin basic protein peptide (MBPP) or Myc peptide) in the presence of ATP, Mg^+2 and radiolabeled ^33P ATP. The phosphorylated peptide is captured on a P 81 phosphocellulose filter (paper filter or embedded in microtiter plate) ished and counted by scintillation methods.
The peptide substrates used in the assay are MBPP, peptide substrate (APRTPGGRR), or synthetic Myc substrate, (KKFELLPTPPLSPSRR•5 TFA). […]
The reaction is run as follows in 50 mM Tris kinase buffer, pH 7.4 in a reaction volume of 50 ul. […] The filters are briefly air dried before addition of scintillant and samples are counted in the appropriate scintillation counter set up for reading ^33P isotope. […]
The raw data is captured as counts per minute (cpm). […] Mean cpm data is tabulated by group and % inhibition by a test compound is calculated as (corrected cpm control−corrected·cpm sample/control)×100=% inhibition). […]

T1 sequence (P28482 whole entry): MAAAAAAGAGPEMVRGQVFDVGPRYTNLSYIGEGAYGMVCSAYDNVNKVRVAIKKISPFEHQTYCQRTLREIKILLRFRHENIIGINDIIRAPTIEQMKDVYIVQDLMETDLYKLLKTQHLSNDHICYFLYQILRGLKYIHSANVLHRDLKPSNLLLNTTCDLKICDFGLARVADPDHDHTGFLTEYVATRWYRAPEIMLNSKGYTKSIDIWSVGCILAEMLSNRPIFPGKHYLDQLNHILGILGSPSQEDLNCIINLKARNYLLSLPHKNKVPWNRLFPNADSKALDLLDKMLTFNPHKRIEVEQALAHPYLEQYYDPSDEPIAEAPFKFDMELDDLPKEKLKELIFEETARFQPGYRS
T1 sequence (Q02750 whole entry): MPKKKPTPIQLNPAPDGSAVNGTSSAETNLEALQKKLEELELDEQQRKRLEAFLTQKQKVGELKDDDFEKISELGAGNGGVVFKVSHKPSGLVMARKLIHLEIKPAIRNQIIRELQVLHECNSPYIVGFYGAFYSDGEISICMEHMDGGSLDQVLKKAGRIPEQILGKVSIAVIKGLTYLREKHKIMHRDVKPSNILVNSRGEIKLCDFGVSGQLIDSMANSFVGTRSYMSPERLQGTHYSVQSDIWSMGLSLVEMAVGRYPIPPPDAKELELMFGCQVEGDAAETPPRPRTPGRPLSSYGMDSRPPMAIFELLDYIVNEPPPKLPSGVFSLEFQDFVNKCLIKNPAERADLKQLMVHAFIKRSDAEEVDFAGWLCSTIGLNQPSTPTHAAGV

pIC50: 7.35
Structure (SMILES): COc1cc2c(Nc3ccc(Oc4ccccc4)cc3)c(C#N)cnc2cc1OCCN1CCC(N2CCCCC2)CC1 [Example 32, 7-(2-[1,4′]Bipiperidinyl-1′-yl-ethoxy)-6-methoxy-4-(4-phenoxy-phenylamino)-quinoline-3-carbonitrile]
